The results in this text go back to ChEMBL document CHEMBL1201862, “PubChem BioAssay data set” (2004).

SMILES strings stand for the structures.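 Compound exposure: 48 hours, 5 concentrations, 96-well plates. At the GI50, growth is halved.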 Calls of active or inactive are those of the source. Cut-off read from the data, not from the text of the source: active = GI50 up to about 1.1 µM and inactive = higher. Bounds are passed on as bounds.

Among the test systems are HCT-116; ACHN; CAKI-1; EKVX; U-251; TK-10; NCI-H23; SK-MEL-2; SF-539; OVCAR-5; IGROV-1; OVCAR-4; A549; SF-295; OVCAR-8; SNB-19; CCRF-CEM; HOP-92; NCI-H226; LOX IMVI.
Experiment in all cases: DTP human tumour cell line panel, 48 h

As to `N#C/C(=C1/Sc2c(nc[nH]c2=O)N1c1ccccc1)c1nc2ccccc2[nH]1`, the GI50 in the assay on HCT-116, in the assay with ACHN, with CAKI-1, with EKVX, in the assay with U-251 and in the assay on TK-10 was > 100 µM (inactive) throughout. The GI50 with NCI-H23, in the assay on SK-MEL-2, in the assay on SF-539, in the assay with OVCAR-5, with IGROV-1 and in the assay with OVCAR-4 was > 100 µM (inactive) in each case. Moreover, the GI50 in the assay on A549, in the assay on SF-295, in the assay with OVCAR-8, in the assay with SNB-19, with CCRF-CEM and with HOP-92 was > 100 µM (inactive) in each case.

For the compound `Cn1cc(NC(=O)[C@H]2CCC(N)=N2)cc1C(=O)NCCC(=N)N`, the GI50 in the assay with HCT-116, in the assay with NCI-H226, in the assay with LOX IMVI, in the assay with ACHN, with EKVX and with U-251 was > 100 µM (inactive) throughout. For the same compound, the GI50 with TK-10, with NCI-H23, in the assay on SK-MEL-2, in the assay on SF-539, in the assay on IGROV-1 and in the assay on A549 was > 100 µM (inactive) throughout. Also, the GI50 in the assay on SF-295, with OVCAR-8, with SNB-19, with CCRF-CEM and in the assay with HOP-92 was > 100 µM (inactive) throughout.

With `CCOC(=O)NC(OCc1ccccc1)(C(=O)OC)C(F)(F)F` (stereo unspecified), the GI50 with HCT-116 was > 100 µM (inactive); in the assay with LOX IMVI, > 100 µM (inactive); in the assay with ACHN, > 100 µM (inactive); in the assay on CAKI-1, 8.2 µM (inactive); in the assay with EKVX, > 100 µM (inactive); in the assay with U-251 it was > 100 µM (inactive). Also, the GI50 in the assay on TK-10, with NCI-H23, in the assay on SK-MEL-2, in the assay on SF-539, in the assay with OVCAR-5 and with IGROV-1 was > 100 µM (inactive) throughout. The GI50 with OVCAR-4, with A549, in the assay with SF-295, in the assay on OVCAR-8, in the assay with SNB-19 and with CCRF-CEM was > 100 µM (inactive) in each case. In the assay on HOP-92, the GI50 was > 100 µM (inactive).

As for `CC1CC/C(=C\c2ccc(Cl)cc2)C(=O)/C1=C\c1ccc(Cl)cc1` (stereo unspecified), the GI50 is 32.6 µM (inactive) with HCT-116; 31.8 µM (inactive) with LOX IMVI; 32.9 µM (inactive) in the assay with ACHN; 20.3 µM (inactive) in the assay on CAKI-1; 26.4 µM (inactive) in the assay on EKVX; 39.9 µM (inactive) with U-251. Besides, the GI50 in the assay on TK-10 is 29.1 µM (inactive); in the assay on SK-MEL-2, 20.4 µM (inactive); with OVCAR-5, 21.6 µM (inactive); in the assay on IGROV-1, 22.4 µM (inactive); in the assay with A549, 35.3 µM (inactive); in the assay with OVCAR-8 it was 30.1 µM (inactive). Further, the GI50 in the assay on SNB-19 is > 10 µM (inactive); in the assay with CCRF-CEM it was 41.9 µM (inactive); in the assay on HOP-92, > 100 µM (inactive).

With `Cc1cccc(C(C)C)c1NC(=O)/C(Cc1c([N+](=O)[O-])cccc1[N+](=O)[O-])=N/NC(=O)CC#N`, the GI50 with HCT-116 was > 100 µM (inactive); with NCI-H226, > 100 µM (inactive); in the assay with LOX IMVI, > 100 µM (inactive); with ACHN, > 100 µM (inactive); with CAKI-1, > 100 µM (inactive); in the assay with EKVX, 7.05 µM (inactive). Further, the GI50 is 80.9 µM (inactive) in the assay with TK-10; > 100 µM (inactive) in the assay with SK-MEL-2; > 100 µM (inactive) in the assay with SF-539; > 100 µM (inactive) with OVCAR-5; > 100 µM (inactive) in the assay with IGROV-1; > 100 µM (inactive) with A549. Besides, the GI50 with SF-295 was > 100 µM (inactive); in the assay on SNB-19, > 100 µM (inactive); in the assay with CCRF-CEM, > 100 µM (inactive); in the assay with HOP-92, 41.6 µM (inactive).

Turning to `COC(=O)/C=C\C(C#N)(C#N)/N=C/c1cccs1`, the GI50 with HCT-116 is 8.69 µM (inactive); in the assay on NCI-H226, 7.53 µM (inactive); with LOX IMVI, 2.34 µM (inactive); with ACHN, 1.84 µM (inactive); in the assay on CAKI-1, 1.88 µM (inactive); in the assay on EKVX, 9.77 µM (inactive). Also, the GI50 is 16.6 µM (inactive) with U-251; 1.76 µM (inactive) in the assay with TK-10; 9.14 µM (inactive) with NCI-H23; 18.5 µM (inactive) in the assay with SK-MEL-2; 5.92 µM (inactive) in the assay with OVCAR-5; 15.7 µM (inactive) in the assay on IGROV-1. For the same compound, the GI50 was 5.82 µM (inactive) in the assay on OVCAR-4; 22.6 µM (inactive) in the assay with A549; 18.8 µM (inactive) with SF-295; 3.76 µM (inactive) in the assay with OVCAR-8; 30.8 µM (inactive) with SNB-19; 0.533 µM (active) in the assay on CCRF-CEM. Moreover, the GI50 in the assay with HOP-92 was 1.84 µM (inactive).

With `O=C(O)C1=CNC(C(=O)O)=NN1`, the GI50 in the assay with HCT-116, in the assay on NCI-H226, with ACHN, with CAKI-1, with EKVX and in the assay on U-251 was > 100 µM (inactive) each time. Moreover, the GI50 with TK-10, in the assay on NCI-H23, with SK-MEL-2, in the assay with SF-539, in the assay with IGROV-1 and in the assay on OVCAR-4 was > 100 µM (inactive) in each case. In addition, the GI50 with A549, in the assay with SF-295, with OVCAR-8, with SNB-19, with CCRF-CEM and in the assay with HOP-92 was > 100 µM (inactive) throughout.

Regarding `Fc1ccc2c(c1)SC1=Nc3sc4cc(F)ccc4[n+]3CN12`, the GI50 was 22.5 µM (inactive) in the assay with HCT-116; 21.3 µM (inactive) with NCI-H226; 18.4 µM (inactive) in the assay with LOX IMVI; 20.6 µM (inactive) in the assay with ACHN; 14.9 µM (inactive) in the assay on CAKI-1; 28 µM (inactive) with EKVX. Moreover, the GI50 in the assay on U-251 was 16.7 µM (inactive); in the assay with TK-10 it was 18.8 µM (inactive); in the assay on NCI-H23 it was 17.5 µM (inactive); with SK-MEL-2 it was 21.4 µM (inactive); in the assay on SF-539, 12.7 µM (inactive); with OVCAR-5, 25.7 µM (inactive). The GI50 with IGROV-1 is 3.91 µM (inactive); in the assay with OVCAR-4, 14.5 µM (inactive); with A549, 12.4 µM (inactive); in the assay on SF-295, 32.1 µM (inactive); in the assay on OVCAR-8 it was 14.6 µM (inactive); with SNB-19, 16.4 µM (inactive). In addition, in the assay with HOP-92, the GI50 is 17.1 µM (inactive).

As to `COC(=O)c1ccc(CN2CCc3c([nH]c4ccccc34)C2CO)o1` (stereo unspecified), the GI50 with CAKI-1, in the assay on EKVX, in the assay with TK-10, with NCI-H23, in the assay with IGROV-1 and with OVCAR-4 was > 10 µM (inactive) in each case. Moreover, the GI50 in the assay with A549, in the assay with SF-295, in the assay with OVCAR-8, in the assay on CCRF-CEM and in the assay with HOP-92 was > 10 µM (inactive) in each case.

Regarding `C[C@H](O)C(=O)SC[C@H](NC(=O)CC[C@@H](N)C(=O)O)C(=O)NCC(=O)O`, the GI50 in the assay with HCT-116, with NCI-H226, with LOX IMVI, in the assay with ACHN, in the assay on CAKI-1 and with EKVX was > 100 µM (inactive) in each case. Besides, the GI50 in the assay on U-251, in the assay with TK-10, in the assay with NCI-H23, in the assay on SK-MEL-2, in the assay on OVCAR-5 and in the assay with IGROV-1 was > 100 µM (inactive) in each case. Moreover, the GI50 in the assay on OVCAR-4, in the assay on SF-295, with OVCAR-8, with CCRF-CEM and with HOP-92 was > 100 µM (inactive) throughout.

With `COC(=O)C(C/C=C(\C)c1ccc(Cl)cc1)C(C)=O` (stereo unspecified), the GI50 in the assay on HCT-116 was 41.7 µM (inactive); with NCI-H226 it was 24.6 µM (inactive); in the assay on LOX IMVI, 14.9 µM (inactive); with EKVX it was 54.5 µM (inactive); in the assay on U-251, 26.1 µM (inactive); with NCI-H23, 35.5 µM (inactive). The GI50 in the assay with SK-MEL-2 is 5.53 µM (inactive); in the assay with SF-539 it was 99.5 µM (inactive); in the assay on OVCAR-5 it was 16.4 µM (inactive); in the assay on IGROV-1 it was 53.6 µM (inactive); with OVCAR-4, 27.2 µM (inactive); with A549, 31 µM (inactive). Also, the GI50 in the assay with SF-295 was 39.9 µM (inactive); in the assay on OVCAR-8 it was 52 µM (inactive); in the assay on SNB-19, > 100 µM (inactive); in the assay on CCRF-CEM it was 30.1 µM (inactive); with HOP-92, 19.5 µM (inactive).

As usually defined, the GI50 is the concentration at which growth is held to half of that of the control.
